Earlier results, collected in US10016375B2, “Materials and methods for controlling infections” (priority 2013, dated 2018).

Legend:
[1] = 4% chlorhexidine gluconate applied to the eyes
[2] = three consecutive cataract operations

**Q.** With `[H]/N=C(\N/C(=N/[H])NCCCCCCNC(=N)NC(=N)Nc1ccc(Cl)cc1)Nc1ccc(Cl)cc1` [Chlorhexidine gluconate] as the molecule, how does the “Corneal damage (bullous keratopathy, epithelial defects, corneal opacification) when applied to the eyes” value [1] read?
**A.** may produce corneal damage

**Q.** For `CC(=O)O.CC(=O)O.NC(=N\CCCCCC/N=C(N)/N=C(\N)Nc1ccc(Cl)cc1)/N=C(\N)Nc1ccc(Cl)cc1` [Chlorhexidine diacetate], which “Acute toxicity when applied to the eye” value is on record?
**A.** highly acutely toxic

**Q.** With `[H]/N=C(\N/C(=N/[H])NCCCCCCNC(=N)NC(=N)Nc1ccc(Cl)cc1)Nc1ccc(Cl)cc1` [chlorhexidine] as the molecule, how does the “Effects in the retina or optic nerve after intraocular irrigation” value [2] read?
**A.** No effects were observed

**Q.** And the “Corneal endothelium damage after intraocular irrigation” value ([2]; two of the three patients)?
**A.** corneal endothelium damage was so severe that penetrating keratoplasty had to be performed
